Assay results as given in US20040077611A1, “Triple therapy of angiotensin converting enzyme inhibitor epoxy-steroidal aldosterone antagonist and diuretic or digoxin for treatment of cardiovascular disease” (G.D. Searle & Co., priority 1999, published 2004).
Converted amounts (≈) assume the structure as drawn. Like-named read-outs stand apart in the source and are kept apart here.

Columns and labels:
[1] = Dissolution rate of unformulated solid state forms of eplerenone; type: physicochemical; details: temperatures below the enantiotropic transition temperature
[2] = Physical stability of solid state forms of eplerenone; type: physicochemical; details: temperatures below the enantiotropic transition temperature
[3] = test system: patients with severe HF (NYHA Class IV); details: cited from earlier work
humans = experiment: Effects of eplerenone pharmaceutical compositions in humans after oral administration; type: in vivo
[4] = Solubility of eplerenone in crystallization solvents; type: physicochemical; details: organic crystallization solvent or mixture of solvents, room temperature
[5] = test system: patients with stable NYHA Class II-IV heart failure; details: human, in vivo
[6] = test system: patients with stable NYHA Class II-IV heart failure; experiment: Clinical trial of eplerenone added to ACE inhibitor and loop diuretic in heart failure (Biological Evaluation I); details: for plasma renin activity (PRA): 12 weeks of treatment, FIG. 28
[7] = test system: patients alive at Day 3 with Killip class >I; details: patients randomized to lisinopril; ACE-I treatment stopped at 42 days; cited from earlier work
[8] = test system: patients with clinical evidence of HF at any time after an AMI; details: cited from earlier work; for risk reduction in all cause mortality: compared to placebo (p=0.002)
[9] = test system: patients with impaired ejection fraction post AMI; details: cited from earlier work
[10] = test system: myocardial fibrosis in animal models; details: cited from earlier work
[11] = test system: patients with severe HF (NYHA Class III or IV); details: cited from earlier work
[12] = test system: patients afflicted with congestive heart failure; details: cited from earlier work
[13] = test system: patients with LV dysfunction 2 to 6 days following MI; details: cited from earlier work
[14] = humans, over about 12 to 24 hours after ingestion of the composition

Q: With `COC(=O)[C@@H]1CC2=CC(=O)CC[C@]2(C)[C@@]23O[C@@H]2C[C@@]2(C)[C@@H](CC[C@@]24CCC(=O)O4)[C@H]13` [Form H] as the compound, how does the “dissolution rate relative to unformulated Form L” value [1] read?
A: approximately 30%

Q: Which “physical stability relative to Form H” value [2] does the source give for `COC(=O)[C@@H]1CC2=CC(=O)CC[C@]2(C)[C@@]23O[C@@H]2C[C@@]2(C)[C@@H](CC[C@@]24CCC(=O)O4)[C@H]13` [Form L] here?
A: greater physical stability

Q: Which results are given for `CCOC(=O)[C@H](CCc1ccccc1)N[C@@H](C)C(=O)N1CCC[C@H]1C(=O)O` [enalapril]?
A: reduction of mortality at one year ([3]; enalapril plus diuretics compared to placebo plus diuretics): 31%; mortality ([3]; group with baseline aldosterone plasma levels above the median): reduced; mortality ([3]; group with baseline aldosterone plasma levels below the median): no difference from placebo

Q: Which results are given for `COC(=O)[C@@H]1CC2=CC(=O)CC[C@]2(C)[C@@]23O[C@@H]2C[C@@]2(C)[C@@H](CC[C@@]24CCC(=O)O4)[C@H]13` [eplerenone, Pregn-4-ene-7,21-dicarboxylic acid, 9,11-epoxy-17-hydroxy-3-oxo-, γ-lactone, methyl ester, (7^α, 11^α, 17^α)-]?
A: average decrease in diasystolic blood pressure (humans; [14]): at least 5%; average increase in blood serum aldosterone concentrations (humans; [14]): at least 50%; average increase in blood serum renin concentration (humans; [14]): at least 10%; urinary log10 (sodium/potassium) ratio (humans; [14]): increase; efficacy of the required daily dosage, once-a-day relative to twice-a-day administration (humans; in vivo): does not appear to materially differ; solubility [4]: 5 to 200 mg/mL (≈ 12.1 to 483 mM); testosterone levels [5]: lack of effect; plasma renin activity (PRA) [6]: significantly elevated; reduction in BNP ([6]; eplerenone at 25 mg and 100 mg, all patients, FIG. 29): highly significant; urinary aldosterone excretion, increase from baseline ([6]; eplerenone doses of 50 and 100 mg, 12 week visit): Greater increases

Q: Which first-year mortality [7] does the source give for `NCCCC[C@H](N[C@@H](CCc1ccccc1)C(=O)O)C(=O)N1CCC[C@H]1C(=O)O` [lisinopril] here?
A: 22%

Q: Which “risk reduction in all cause mortality” value ([8]; AIRE) does the source give for `CCOC(=O)[C@H](CCc1ccccc1)N[C@@H](C)C(=O)N1[C@H](C(=O)O)C[C@@H]2CCC[C@@H]21` [ramipril] here?
A: 27%

Q: What about the “reduction in the risk of developing severe resistant HF” value ([8]; AIRE, compared to placebo (p=0.017)) of the same compound?
A: 23%

Q: What about the “risk reduction in all cause mortality” value ([8]; AIREX long-term (three year) follow-up) of the same compound?
A: 36%

Q: What about the “ventricular dilatation and systolic dysfunction” value [9] of the same compound?
A: prevented ventricular dilatation and further decline of systolic dysfunction

Q: What does the source list for `CC(=O)S[C@@H]1CC2=CC(=O)CC[C@]2(C)[C@H]2CC[C@@]3(C)[C@@H](CC[C@@]34CCC(=O)O4)[C@H]12` [spironolactone]?
A: ventricular dilatation and systolic dysfunction [9]: prevented ventricular dilatation and further decline of systolic dysfunction; myocardial fibrosis ([10]; Klug et al): prevents myocardial fibrosis; fibrosis ([10]; irrespective of the development of left ventricular hypertrophy and the presence of hypertension, Brilla et al): prevent fibrosis; reduction in mortality compared to placebo ([11]; as restated): > 30%; median increase in serum potassium concentration ([11]; compared to patients treated with placebo): statistically but not clinically significant; risk reduction for all cause mortality ([11]; spironolactone 25 mg daily added to standard therapy vs standard therapy plus placebo (p<0.001)): 30%; lower frequency of hospitalization for worsening HF ([11]; vs placebo patients): 35%; clinical outcome ([12]; co-therapy of spironolactone and enalapril): Clinical improvements; patients in whom co-therapy was highly effective ([12]; spironolactone coadministered with an ACE inhibitor): 13 of 16; plasma renin activity (PRA) [6]: significantly elevated; testosterone levels ([6]; males): significant increase

Q: Which “relative reduction in the risk of death” value ([13]; compared to placebo (p=0.001)) does the source give for `CCOC(=O)[C@H](CCc1ccccc1)N[C@@H](C)C(=O)N1[C@H](C(=O)O)C[C@H]2CCCC[C@@H]21` [trandolapril] here?
A: 18%

Q: And the “reduction in the risk of progression to severe HF” value ([13]; compared to placebo (p=0.003))?
A: 29%
